Experimental data from patent US9920069B2, “Compounds for treatment of fluoroquinolone-resistant bacteria” (The Board of Trustees of the University of Illinois, priority 2014, dated 2018).
Values after ≈ are worked out from the molar mass of the structure shown. Where two headings read alike, the source gives them in different places.

How the values were obtained:
[1] = physchem; settings: organic solvent or mixture, thermodynamic from solid
[2] = test system: Enterococcus ATCC 29212; experiment: organism not typed; assay type: cell-based, E. faecalis; settings: ATCC 29212, E. faecalis, gyrA WT, parC WT
[3] = test system: MRSA clinical isolate SAU.3021; experiment: MIC, microdilution broth; assay type: cell-based, S. aureus; settings: Staphylococcus aureus, MRSA, read-out: MIC
Experimental: (§1) Susceptibility testing was performed in triplicate using the microdilution broth method as outlined by the Clinical and Laboratory Standards Institute CLSI^52. MH broth was used.

[4] = test system: MRSA clinical isolate SAU.3026; experiment: MIC, microdilution broth; assay type: cell-based, S. aureus; settings: Staphylococcus aureus, MRSA, read-out: MIC
Experimental: as §1

[5] = test system: MRSA clinical isolate SAU.447; experiment: MIC, microdilution broth; assay type: cell-based, S. aureus; settings: Staphylococcus aureus
Experimental: as §1

[6] = test system: PA1586; experiment: MIC, microdilution broth; assay type: cell-based, P. aeruginosa; settings: Pseudomonas aeruginosa
Experimental: (§2) E. coli MG1655 and the ΔAcrB strain were obtained from Prof. Cari Vanderpool at UIUC.
as §1

[7] = test system: VRE clinical isolate C28036; experiment: microbe, parasite or virus in culture; assay type: cell-based, Ent. Spp.; settings: Enterococcus
Experimental: (§3) QRDR mutations were determined as described in the text using primers (primer sequences can be found in Table 7).
as §1

[8] = target: T1, WT E. coli DNA gyrase (Escherichia coli, UniProt P0AES4); assay type: biochemical; settings: in words
T1 construct: His tag (pTrcHisA vector, purified on Ni-NTA); made in house; host or cells: E. coli One Shot BL21 Star (DE3)
T1 sequence (P0AES4 whole entry): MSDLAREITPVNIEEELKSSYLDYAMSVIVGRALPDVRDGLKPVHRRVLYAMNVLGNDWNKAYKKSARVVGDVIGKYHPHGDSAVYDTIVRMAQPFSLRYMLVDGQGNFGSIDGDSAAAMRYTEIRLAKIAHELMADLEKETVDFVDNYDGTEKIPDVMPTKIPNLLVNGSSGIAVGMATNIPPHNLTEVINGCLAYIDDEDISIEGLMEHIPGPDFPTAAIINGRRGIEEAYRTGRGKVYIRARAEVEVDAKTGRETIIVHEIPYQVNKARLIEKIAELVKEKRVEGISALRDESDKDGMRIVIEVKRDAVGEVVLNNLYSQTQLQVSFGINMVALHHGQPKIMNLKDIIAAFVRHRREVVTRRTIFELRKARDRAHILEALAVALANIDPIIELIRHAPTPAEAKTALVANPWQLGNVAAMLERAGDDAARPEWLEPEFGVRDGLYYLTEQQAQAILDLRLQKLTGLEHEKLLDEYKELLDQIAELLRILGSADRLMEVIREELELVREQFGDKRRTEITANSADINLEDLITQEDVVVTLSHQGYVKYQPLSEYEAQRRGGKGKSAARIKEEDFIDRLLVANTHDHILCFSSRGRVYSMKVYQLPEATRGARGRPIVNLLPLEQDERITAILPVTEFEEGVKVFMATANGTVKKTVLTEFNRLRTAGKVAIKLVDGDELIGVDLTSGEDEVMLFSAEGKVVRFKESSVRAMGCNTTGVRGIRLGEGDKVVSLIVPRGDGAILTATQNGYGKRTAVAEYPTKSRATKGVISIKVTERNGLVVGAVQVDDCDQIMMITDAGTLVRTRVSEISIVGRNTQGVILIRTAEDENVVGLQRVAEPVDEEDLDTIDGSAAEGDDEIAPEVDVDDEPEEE

[9] = test system: Enterococcus ATCC 19433; experiment: organism not typed; assay type: cell-based, E. faecalis; settings: ATCC 19433, E. faecalis; gyrA WT, parC WT; read-out: MIC
[10] = test system: A. baumannii KB349; experiment: MIC, microdilution broth; assay type: cell-based; settings: Acinetobacter baumannii
Experimental: as §2, §1

[11] = test system: A. baumannii KB304; experiment: MIC, microdilution broth; assay type: cell-based; settings: Acinetobacter baumannii
Experimental: as §2, §1

[12] = test system: high level CIP resistant strains of S. aureus ATCC 29213 (S84L GyrA); experiment: microbe, parasite or virus in culture; assay type: cell-based; settings: Staphylococcus aureus, ATCC29213
[13] = test system: MRSA clinical isolate SAU.493; experiment: microbe, parasite or virus in culture; assay type: cell-based, S. aureus; settings: Staphylococcus aureus, read-out: MIC
Experimental: as §1

[14] = test system: MRSA clinical isolate SAU.708; experiment: microbe, parasite or virus in culture; assay type: cell-based, S. aureus; settings: Staphylococcus aureus, read-out: MIC
Experimental: as §1

[15] = test system: MRSA clinical isolate SAU.495; experiment: microbe, parasite or virus in culture; assay type: cell-based, S. aureus; settings: Staphylococcus aureus, read-out: MIC
Experimental: as §1

[16] = test system: MRSA clinical isolate SAU.492; experiment: microbe, parasite or virus in culture; assay type: cell-based, S. aureus; settings: Staphylococcus aureus, read-out: MIC
Experimental: as §1

[17] = test system: MRSA clinical isolate SAU.496; experiment: microbe, parasite or virus in culture; assay type: cell-based, S. aureus; settings: Staphylococcus aureus, read-out: MIC
Experimental: as §1

[18] = test system: MRSA clinical isolate SAU.489; experiment: microbe, parasite or virus in culture; assay type: cell-based, S. aureus; settings: Staphylococcus aureus, read-out: MIC
Experimental: as §1

[19] = test system: MRSA clinical isolate SAU.710; experiment: microbe, parasite or virus in culture; assay type: cell-based, S. aureus; settings: Staphylococcus aureus, read-out: MIC
Experimental: as §1

[20] = test system: MRSA clinical isolate SAU.491; experiment: microbe, parasite or virus in culture; assay type: cell-based, S. aureus; settings: Staphylococcus aureus, read-out: MIC
Experimental: as §1

[21] = test system: MRSA clinical isolate SAU.709; experiment: microbe, parasite or virus in culture; assay type: cell-based, S. aureus; settings: Staphylococcus aureus, read-out: MIC
Experimental: as §1

[22] = test system: MRSA clinical isolate SAU.494; experiment: microbe, parasite or virus in culture; assay type: cell-based, S. aureus; settings: Staphylococcus aureus, read-out: MIC
Experimental: as §1

[23] = test system: S. aureus 29213 (WT GyrA and WT ParC); experiment: microbe, parasite or virus in culture; assay type: cell-based; settings: for MIC: Staphylococcus aureus, WT GyrA and WT ParC, read-out: MIC against S. aureus 29213
Experimental: as §1

[24] = test system: P. aeruginosa PAO1; experiment: microbe, parasite or virus in culture; assay type: cell-based; settings: Pseudomonas aeruginosa, gyrA none, parC none
Experimental: as §2, §1

[25] = test system: E. coli ATCC 25922; experiment: microbe, parasite or virus in culture; assay type: cell-based; settings: Escherichia coli, ATCC25922, gyrA none, parC none
Experimental: as §2, §1

[26] = test system: A. baumannii ATCC 19606; experiment: microbe, parasite or virus in culture; assay type: cell-based; settings: Acinetobacter baumannii, ATCC19606, gyrA none, parC none
Experimental: as §2, §1

[27] = test system: MRSA clinical isolates; experiment: Panel of MRSA clinical isolates (FIG. 2A); assay type: cell-based, S. aureus; settings: n=21, in words
[28] = test system: VRE clinical isolate S51; experiment: organism not typed; assay type: cell-based, E. faecium
Experimental: as §3, §1

[29] = test system: VRE clinical isolate C27282; experiment: organism not typed; assay type: cell-based, E. faecium
Experimental: as §3, §1

[30] = test system: VRE clinical isolate S34; experiment: organism not typed; assay type: cell-based, E. faecium
Experimental: as §3, §1

[31] = test system: VRE clinical isolate S226; experiment: organism not typed; assay type: cell-based, E. faecium
Experimental: as §3, §1

[32] = test system: VRE clinical isolate U63; experiment: organism not typed; assay type: cell-based, E. faecium
Experimental: as §3, §1

[33] = test system: VRE clinical isolate C21190; experiment: organism not typed; assay type: cell-based, E. faecium
Experimental: as §3, §1

[34] = test system: VRE clinical isolate U563; experiment: organism not typed; assay type: cell-based, E. faecium
Experimental: as §3, §1

[35] = test system: VRE clinical isolate U275; experiment: organism not typed; assay type: cell-based, E. faecium
Experimental: as §3, §1

[36] = test system: VRE clinical isolate S235; experiment: organism not typed; assay type: cell-based, E. faecium
Experimental: as §3, §1

[37] = test system: VRE clinical isolate U503; experiment: organism not typed; assay type: cell-based, E. faecium
Experimental: as §3, §1

[38] = test system: VRE clinical isolate U464; experiment: organism not typed; assay type: cell-based, E. faecium
Experimental: as §3, §1

[39] = test system: VRE clinical isolates; experiment: Panel of VRE clinical isolates (FIG. 2B); assay type: cell-based, Enterococcus; settings: n=22, in words

Cc1cc(=O)n(C)c2c3c4c(cc12)c(C)cc(=O)n4CO3 [DNM, deoxynybomycin]
solubility [1]: 200 µM (≈ 56.5 µg/mL) | MIC [2]: >1 µg/mL | MIC ([2]; read-out: MIC): > 1 µg/mL | MIC [3]: 0.031 µg/mL (≈ 0.11 µM) | MIC [4]: 0.125 µg/mL (≈ 0.443 µM) | MIC [5]: 0.063 µg/mL (≈ 0.223 µM) | MIC [6]: > 4 µg/mL | MIC [7]: 0.25 µg/mL (≈ 0.886 µM) | inhibition of WT DNA gyrase [8]: poor inhibitors of WT DNA gyrase | MIC [9]: > 1 µg/mL | MIC [10]: > 4 µg/mL | MIC [11]: > 4 µg/mL | MIC [12]: 0.03 to 0.06 µg/mL (≈ 0.106 to 0.213 µM) | MIC [13]: 0.063 µg/mL (≈ 0.223 µM) | MIC [14]: 0.063 µg/mL (≈ 0.223 µM) | MIC [15]: 0.063 µg/mL (≈ 0.223 µM) | MIC [16]: 0.063 µg/mL (≈ 0.223 µM) | MIC [17]: 0.063 µg/mL (≈ 0.223 µM) | MIC [18]: 0.031 µg/mL (≈ 0.11 µM) | MIC [19]: 0.031 µg/mL (≈ 0.11 µM) | MIC [20]: 0.125 µg/mL (≈ 0.443 µM) | MIC [21]: 0.063 µg/mL (≈ 0.223 µM) | MIC [22]: 0.063 µg/mL (≈ 0.223 µM) | MIC [23]: > 1 µg/mL | activity against FQ-sensitive strain 29213 ([23]; in words): modest activity | MIC [24]: > 4 µg/mL | MIC [25]: > 4 µg/mL | MIC [26]: > 4 µg/mL | sensitivity of MRSA clinical isolates [27]: sensitive | MIC [28]: 0.25 µg/mL (≈ 0.886 µM) | MIC [29]: > 1 µg/mL | MIC [30]: 1 µg/mL (≈ 3.54 µM) | MIC [31]: 0.25 µg/mL (≈ 0.886 µM) | MIC [32]: 1 µg/mL (≈ 3.54 µM) | MIC [33]: > 1 µg/mL | MIC [34]: > 1 µg/mL | MIC [35]: 1 µg/mL (≈ 3.54 µM) | MIC [36]: 0.125 µg/mL (≈ 0.443 µM) | MIC [37]: > 1 µg/mL | MIC [38]: 1 µg/mL (≈ 3.54 µM) | sensitivity of VRE clinical isolates [39]: sensitive

CCn1c(=O)cc(C)c2cc3c(C)cc(=O)n4c3c(c21)OC4 [DNM-2]
solubility [1]: 4000 µM (≈ 1190 µg/mL) | MIC ([2]; read-out: MIC): 8 µg/mL (≈ 27 µM) | MIC [3]: 0.063 µg/mL (≈ 0.213 µM) | MIC [4]: 0.125 µg/mL (≈ 0.422 µM) | MIC [5]: 0.125 µg/mL (≈ 0.422 µM) | MIC [6]: > 24 µg/mL | MIC [7]: 0.5 µg/mL (≈ 1.69 µM) | inhibition of WT DNA gyrase [8]: poor inhibitors of WT DNA gyrase | MIC [9]: 8 µg/mL (≈ 27 µM) | MIC [10]: > 24 µg/mL | MIC [11]: > 24 µg/mL | MIC [12]: 0.06 to 0.12 µg/mL (≈ 0.202 to 0.405 µM) | MIC [13]: 0.125 µg/mL (≈ 0.422 µM) | MIC [14]: 0.125 µg/mL (≈ 0.422 µM) | MIC [15]: 0.125 µg/mL (≈ 0.422 µM) | MIC [16]: 0.125 µg/mL (≈ 0.422 µM) | MIC [17]: 0.125 µg/mL (≈ 0.422 µM) | MIC [18]: 0.125 µg/mL (≈ 0.422 µM) | MIC [19]: 0.063 µg/mL (≈ 0.213 µM) | MIC [20]: 0.125 µg/mL (≈ 0.422 µM) | MIC [21]: 0.125 µg/mL (≈ 0.422 µM) | MIC [22]: 0.125 µg/mL (≈ 0.422 µM) | MIC [23]: 8 µg/mL (≈ 27 µM) | MIC [24]: > 24 µg/mL | MIC [25]: > 24 µg/mL | MIC [26]: > 24 µg/mL | sensitivity of MRSA clinical isolates [27]: sensitive | MIC [28]: 0.5 µg/mL (≈ 1.69 µM) | MIC [29]: 4 µg/mL (≈ 13.5 µM) | MIC [30]: 1 µg/mL (≈ 3.37 µM) | MIC [31]: 0.5 µg/mL (≈ 1.69 µM) | MIC [32]: 4 µg/mL (≈ 13.5 µM) | MIC [33]: 8 µg/mL (≈ 27 µM) | MIC [34]: 2 µg/mL (≈ 6.75 µM) | MIC [35]: 2 µg/mL (≈ 6.75 µM) | MIC [36]: 0.5 µg/mL (≈ 1.69 µM) | MIC [37]: 4 µg/mL (≈ 13.5 µM) | MIC [38]: 2 µg/mL (≈ 6.75 µM) | sensitivity of VRE clinical isolates [39]: sensitive
